Assay results reported in ChEMBL document CHEMBL1201861, “Genomics of Drug Sensitity in Cancer screening data, Wellcome Trust Sanger Institute”.

Columns and labels:
Experiment in all cases: cells
CTB-1 = assay type: functional, cell-based, Homo sapiens; settings: Homo sapiens, CTB-1
Description: SANGER: Inhibition of human CTB-1 cell growth in a cell viability assay.

DEL = assay type: functional, cell-based, Homo sapiens; settings: Homo sapiens, DEL;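 note: growth inhibition of the human DEL cell line, read out with a cell viability assay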
Description: SANGER: Inhibition of human DEL cell growth in a cell viability assay.

EFO-27 = assay type: functional, cell-based; settings: Homo sapiens;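 note: growth inhibition of EFO-27 cells, read out with a cell viability assay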
Description: SANGER: Inhibition of human EFO-27 cell growth in a cell viability assay.

EW-1 = assay type: functional, cell-based, Homo sapiens; settings: Homo sapiens, EW-1
Description: SANGER: Inhibition of human EW-1 cell growth in a cell viability assay.

EW-11 = assay type: functional, cell-based, Homo sapiens; settings: Homo sapiens, EW-11;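 note: growth inhibition of human EW-11 cells, measured with a cell viability assay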
Description: SANGER: Inhibition of human EW-11 cell growth in a cell viability assay.

GAK = assay type: functional, cell-based, Homo sapiens; settings: Homo sapiens, GAK;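 note: cell growth inhibition read out by a cell viability assay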
Description: SANGER: Inhibition of human GAK cell growth in a cell viability assay.

HEL = assay type: functional, cell-based, Homo sapiens; settings: Homo sapiens, HEL;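 note: growth inhibition of HEL cells, read out with a cell viability assay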
Description: SANGER: Inhibition of human HEL cell growth in a cell viability assay.

HH = assay type: functional, cell-based, Homo sapiens; settings: Homo sapiens, HH
Description: SANGER: Inhibition of human HH cell growth in a cell viability assay.

IST-MES1 = assay type: functional, cell-based, Homo sapiens; settings: Homo sapiens, IST-MES1;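 note: growth inhibition of IST-MES1 cells, measured with a cell viability assay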
Description: SANGER: Inhibition of human IST-MES1 cell growth in a cell viability assay.

K562 = assay type: functional, cell-based, Homo sapiens; settings: Homo sapiens, K562
Description: SANGER: Inhibition of human K-562 cell growth in a cell viability assay.

KLE = assay type: functional, cell-based; settings: Homo sapiens;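 note: growth inhibition of human KLE cells, read out with a cell viability assay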
Description: SANGER: Inhibition of human KLE cell growth in a cell viability assay.

L-428 = assay type: functional, cell-based, Homo sapiens; settings: Homo sapiens, L-428
Description: SANGER: Inhibition of human L-428 cell growth in a cell viability assay.

LB1047-RCC = assay type: functional, cell-based, Homo sapiens; settings: Homo sapiens, LB1047-RCC;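 note: inhibition of cell growth, determined with a cell viability assay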
Description: SANGER: Inhibition of human LB1047-RCC cell growth in a cell viability assay.

LB996-RCC = assay type: functional, cell-based, Homo sapiens; settings: Homo sapiens, LB996-RCC
Description: SANGER: Inhibition of human LB996-RCC cell growth in a cell viability assay.

LS-411N = assay type: functional, cell-based, Homo sapiens; settings: Homo sapiens, LS-411N
MHH-NB-11 = assay type: functional, cell-based, Homo sapiens; settings: Homo sapiens, MHH-NB-11;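 note: growth inhibition of human MHH-NB-11 cells, read out by a cell viability assay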
Description: SANGER: Inhibition of human MHH-NB-11 cell growth in a cell viability assay.

MPP-89 = assay type: functional, cell-based, Homo sapiens; settings: Homo sapiens, MPP-89;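 note: growth inhibition of human MPP-89 cells, read out with a cell viability assay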
Description: SANGER: Inhibition of human MPP-89 cell growth in a cell viability assay.

MSTO-211H = assay type: functional, cell-based, Homo sapiens; settings: Homo sapiens, MSTO-211H
Description: SANGER: Inhibition of human MSTO-211H cell growth in a cell viability assay.

NB5 = assay type: functional, cell-based, Homo sapiens; settings: Homo sapiens, NB5;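 note: growth inhibition of NB5 cells, read out as cell viability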
Description: SANGER: Inhibition of human NB5 cell growth in a cell viability assay.

NCI-H1299 = assay type: functional, cell-based; settings: Homo sapiens;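 note: growth inhibition of human NCI-H1299 cells, read out by a cell viability assay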
Description: SANGER: Inhibition of human NCI-H1299 cell growth in a cell viability assay.

NCI-H1304 = assay type: functional, cell-based, Homo sapiens; settings: Homo sapiens, NCI-H1304;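 note: growth inhibition of the cancer cell line, measured in a cell viability assay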
Description: SANGER: Inhibition of human NCI-H1304 cell growth in a cell viability assay.

NCI-H1355 = assay type: functional, cell-based, Homo sapiens; settings: Homo sapiens, NCI-H1355;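 note: growth inhibition of human NCI-H1355 cells, read out by a cell viability assay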
Description: SANGER: Inhibition of human NCI-H1355 cell growth in a cell viability assay.

NCI-H1581 = assay type: functional, cell-based, Homo sapiens; settings: Homo sapiens, NCI-H1581;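 note: cell growth inhibition read out by a viability assay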
Description: SANGER: Inhibition of human NCI-H1581 cell growth in a cell viability assay.

NCI-H209 = assay type: functional, cell-based, Homo sapiens; settings: Homo sapiens, NCI-H209;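 note: growth inhibition of human NCI-H209 cells, measured by a cell viability assay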
Description: SANGER: Inhibition of human NCI-H209 cell growth in a cell viability assay.

NCI-N87 = assay type: functional, cell-based; settings: Homo sapiens;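 note: growth inhibition of human NCI-N87 cells, read out with a cell viability assay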
Description: SANGER: Inhibition of human NCI-N87 cell growth in a cell viability assay.

NEC8 = assay type: functional, cell-based, Homo sapiens; settings: Homo sapiens, NEC8;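 note: growth inhibition of human NEC8 cells, read out by a cell viability assay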
Description: SANGER: Inhibition of human NEC8 cell growth in a cell viability assay.

NH-12 = assay type: functional, cell-based, Homo sapiens; settings: Homo sapiens, NH-12;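 note: growth inhibition of NH-12 cells, read out with a cell viability assay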
Description: SANGER: Inhibition of human NH-12 cell growth in a cell viability assay.

OAW-42 = assay type: functional, cell-based; settings: Homo sapiens;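 note: growth inhibition of OAW-42 cells, read out with a cell viability assay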
Description: SANGER: Inhibition of human OAW-42 cell growth in a cell viability assay.

OCUB-M = assay type: functional, cell-based; settings: Homo sapiens;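 note: growth inhibition of the cancer cell line, read out through a cell viability assay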
Description: SANGER: Inhibition of human OCUB-M cell growth in a cell viability assay.

RKO = assay type: functional, cell-based, Homo sapiens; settings: Homo sapiens, RKO;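 note: growth inhibition of human RKO cells, read out with a cell viability assay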
Description: SANGER: Inhibition of human RKO cell growth in a cell viability assay.

RPMI-8866 = assay type: functional, cell-based, Homo sapiens; settings: Homo sapiens, RPMI-8866
Description: SANGER: Inhibition of human RPMI-8866 cell growth in a cell viability assay.

RS4-11 = assay type: functional, cell-based, Homo sapiens; settings: Homo sapiens, RS4-11;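 note: growth inhibition of RS4-11 cells, read out by a cell viability assay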
Description: SANGER: Inhibition of human RS4-11 cell growth in a cell viability assay.

Ramos-2G6-4C10 = assay type: functional, cell-based, Homo sapiens; settings: Homo sapiens, Ramos-2G6-4C10;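 note: growth inhibition of the cell line, measured by a cell viability read-out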
Description: SANGER: Inhibition of human Ramos-2G6-4C10 cell growth in a cell viability assay.

SHP77 = assay type: functional, cell-based, Homo sapiens, SHP-77; settings: Homo sapiens, SHP77;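 note: growth inhibition of human SHP-77 cells measured by a cell viability assay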
Description: SANGER: Inhibition of human SHP-77 cell growth in a cell viability assay.

SK-MEL-1 = assay type: functional, cell-based, Homo sapiens; settings: Homo sapiens, SK-MEL-1;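 note: growth inhibition of human SK-MEL-1 cells, read out by a cell viability assay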
Description: SANGER: Inhibition of human SK-MEL-1 cell growth in a cell viability assay.

SW 962 = assay type: functional, cell-based, Homo sapiens; settings: Homo sapiens, SW 962;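 note: growth inhibition of human SW962 cells, read out by a cell viability assay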
Description: SANGER: Inhibition of human SW962 cell growth in a cell viability assay.

A253 cell line = assay type: functional, cell-based, Homo sapiens; settings: Homo sapiens, A253;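 note: growth inhibition of A253 cells, read out with a cell viability assay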
Description: SANGER: Inhibition of human A253 cell growth in a cell viability assay.

A388 = assay type: functional, cell-based; settings: Homo sapiens;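 note: growth inhibition of human A388 cells, read out with a cell viability assay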
Description: SANGER: Inhibition of human A388 cell growth in a cell viability assay.

A498 = assay type: functional, cell-based, Homo sapiens; settings: Homo sapiens, A498;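 note: growth inhibition of human A498 cells, read out with a cell viability assay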
Description: SANGER: Inhibition of human A498 cell growth in a cell viability assay.

ALL-PO = assay type: functional, cell-based, Homo sapiens; settings: Homo sapiens, ALL-PO;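 note: growth inhibition of ALL-PO cells, read out by a cell viability assay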
Description: SANGER: Inhibition of human ALL-PO cell growth in a cell viability assay.

ATN-1 = assay type: functional, cell-based, Homo sapiens; settings: Homo sapiens, ATN-1;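 note: growth inhibition of human ATN-1 cells, read out with a cell viability assay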
Description: SANGER: Inhibition of human ATN-1 cell growth in a cell viability assay.

BB49-HNC = assay type: functional, cell-based, Homo sapiens; settings: Homo sapiens, BB49-HNC;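 note: cell viability assay read-out, reported as inhibition of BB49-HNC cell growth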
Description: SANGER: Inhibition of human BB49-HNC cell growth in a cell viability assay.

BPH-1 = assay type: functional, cell-based; settings: Homo sapiens;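 note: cell viability assay measuring growth inhibition of human BPH-1 cells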
Description: SANGER: Inhibition of human BPH-1 cell growth in a cell viability assay.

Becker = assay type: functional, cell-based, Homo sapiens; settings: Homo sapiens, Becker;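 note: growth inhibition of Becker cells, read out with a cell viability assay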
Description: SANGER: Inhibition of human Becker cell growth in a cell viability assay.

C8166 = assay type: functional, cell-based, Homo sapiens; settings: Homo sapiens, C8166;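 note: growth inhibition of human C8166 cells measured by a cell viability assay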
Description: SANGER: Inhibition of human C8166 cell growth in a cell viability assay.

TGBC24TKB = assay type: functional, cell-based; settings: Homo sapiens;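 note: growth inhibition of human TGBC24TKB cells, read out with a cell viability assay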
Description: SANGER: Inhibition of human TGBC24TKB cell growth in a cell viability assay.

TGW = assay type: functional, cell-based, Homo sapiens; settings: Homo sapiens, TGW;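 note: growth inhibition of human TGW cells, read out with a cell viability assay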
Description: SANGER: Inhibition of human TGW cell growth in a cell viability assay.

UACC-257 = assay type: functional, cell-based, Homo sapiens; settings: Homo sapiens, UACC-257
Description: SANGER: Inhibition of human UACC-257 cell growth in a cell viability assay.

no-10 = assay type: functional, cell-based, Homo sapiens; settings: Homo sapiens;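 note: growth inhibition of no-10 cells, read out with a cell viability assay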
Description: SANGER: Inhibition of human no-10 cell growth in a cell viability assay.

COLO-320-HSR = assay type: functional, cell-based, Homo sapiens; settings: Homo sapiens, COLO-320-HSR;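 note: growth inhibition of COLO-320-HSR cells, determined with a cell viability assay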
Description: SANGER: Inhibition of human COLO-320-HSR cell growth in a cell viability assay.

COLO-668 = assay type: functional, cell-based, Homo sapiens; settings: Homo sapiens, COLO-668
Description: SANGER: Inhibition of human COLO-668 cell growth in a cell viability assay.

Measured: IC50

COc1ccc(-c2cc3nccn3c(Nc3ncccc3C(N)=O)n2)cc1OC
2.06 µM: EFO-27
2.77 µM: RKO
1.23 µM: RS4-11
4.11 µM: OCUB-M
1.99 µM: BPH-1
1.17 µM: EW-1
3.3 µM: BB49-HNC
> 8 µM: CTB-1 | EW-11 | GAK | HH | IST-MES1 | K562 | KLE | L-428 | MHH-NB-11 | MSTO-211H | NB5 | NCI-H1299 | NCI-H1304 | NCI-H1581 | NCI-H209 | NCI-N87 | OAW-42 | RPMI-8866 | SHP77 | SK-MEL-1 | SW 962 | A253 cell line | A498 | ATN-1 | Becker | TGBC24TKB | TGW | UACC-257 | no-10 | COLO-668
0.741 µM: LB1047-RCC
2.9 µM: COLO-320-HSR
2.2 µM: C8166
2.49 µM: NH-12
5.95 µM: A388
1.7 µM: LB996-RCC
1.35 µM: HEL
3.78 µM: LS-411N
7.77 µM: NEC8
0.557 µM: ALL-PO
3.07 µM: DEL
3.49 µM: NCI-H1355
2.95 µM: Ramos-2G6-4C10
1.67 µM: MPP-89

COC(=O)[C@H](CCSC)NC(=O)c1ccc(NC[C@@H](N)CS)cc1-c1ccccc1
> 1.02 µM: CTB-1 | DEL | EFO-27 | EW-1 | EW-11 | GAK | HEL | HH | IST-MES1 | K562 | KLE | L-428 | LB1047-RCC | LB996-RCC | LS-411N | MHH-NB-11 | MPP-89 | MSTO-211H | NB5 | NCI-H1299 | NCI-H1304 | NCI-H1355 | NCI-H1581 | NCI-H209 | NCI-N87 | NEC8 | NH-12 | OAW-42 | OCUB-M | RKO | RPMI-8866 | RS4-11 | Ramos-2G6-4C10 | SHP77 | SK-MEL-1 | SW 962 | A253 cell line | A388 | A498 | ALL-PO | ATN-1 | BB49-HNC | BPH-1 | Becker | C8166 | TGBC24TKB | TGW | UACC-257 | no-10 | COLO-320-HSR | COLO-668

OC[C@H](Cc1ccccc1)Nc1nc(Oc2ccc3c(c2)CCC3)nc2c1ncn2Cc1ccc(-c2ccccc2)cc1
7.65 µM: Ramos-2G6-4C10
8.51 µM: LS-411N
3.28 µM: HEL
3.37 µM: RKO
3.68 µM: OCUB-M
> 10.2 µM: CTB-1 | DEL | EFO-27 | EW-1 | EW-11 | GAK | HH | IST-MES1 | K562 | KLE | L-428 | LB1047-RCC | LB996-RCC | MHH-NB-11 | MPP-89 | MSTO-211H | NB5 | NCI-H1299 | NCI-H1304 | NCI-H1355 | NCI-H1581 | NCI-H209 | NCI-N87 | NEC8 | NH-12 | OAW-42 | RPMI-8866 | RS4-11 | SHP77 | SK-MEL-1 | SW 962 | A253 cell line | A388 | A498 | ALL-PO | ATN-1 | BB49-HNC | BPH-1 | Becker | C8166 | TGBC24TKB | TGW | UACC-257 | no-10 | COLO-320-HSR | COLO-668
